Data: US8192962B2, “Processes for detecting toxic substances” (Daikin Industries, Ltd., priority 2001, dated 2012)

Tested on: Transport facilitation protein genes
Assay: DNA chip mRNA expression in yeast, transport facilitation protein genes (Table 5)
Assay type: cell-based, Saccharomyces cerevisiae S288C
Summary of the method: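 S. cerevisiae S288C grown at 25° C in YPD were exposed in log phase for two hours to one toxic chemical at a growth-inhibiting, non-lethal concentration; untreated cells served as control. Poly(A) mRNA was reverse-transcribed with Cy3/Cy5-dUTP and hybridized to a whole-genome yeast DNA chip at 65° C for over 12 hours; values are fluorescence ratios versus untreated.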

CCCCCCCCCCCCOS(=O)(=O)[O-].[Na+] [(18), sodium lauryl sulfate]
The level of expressed mRNA in the presence of chemical substance/The level of expressed mRNA in the absence of chemical substance (yeast gene YGR224W): 1.3 | The level of expressed mRNA in the presence of chemical substance/The level of expressed mRNA in the absence of chemical substance (yeast gene YGR260W): 0.9 | The level of expressed mRNA in the presence of chemical substance/The level of expressed mRNA in the absence of chemical substance (yeast gene YGR281W): 3.1 | The level of expressed mRNA in the presence of chemical substance/The level of expressed mRNA in the absence of chemical substance (yeast gene YHL035C): 1.2 | The level of expressed mRNA in the presence of chemical substance/The level of expressed mRNA in the absence of chemical substance (yeast gene YHL040C): 1.0 | The level of expressed mRNA in the presence of chemical substance/The level of expressed mRNA in the absence of chemical substance (yeast gene YHL047C): 1.2 | The level of expressed mRNA in the presence of chemical substance/The level of expressed mRNA in the absence of chemical substance (yeast gene YHR026W): 1.1 | The level of expressed mRNA in the presence of chemical substance/The level of expressed mRNA in the absence of chemical substance (yeast gene YHR092C): 1.3 | The level of expressed mRNA in the presence of chemical substance/The level of expressed mRNA in the absence of chemical substance (yeast gene YHR094C): 1.4 | The level of expressed mRNA in the presence of chemical substance/The level of expressed mRNA in the absence of chemical substance (yeast gene YHR175W): 1.2 | The level of expressed mRNA in the presence of chemical substance/The level of expressed mRNA in the absence of chemical substance (yeast gene YIL006W): 0.9 | The level of expressed mRNA in the presence of chemical substance/The level of expressed mRNA in the absence of chemical substance (yeast gene YIL022W): 0.7 | The level of expressed mRNA in the presence of chemical substance/The level of expressed mRNA in the absence of chemical substance (yeast gene YIL056W): 1.2 | The level of expressed mRNA in the presence of chemical substance/The level of expressed mRNA in the absence of chemical substance (yeast gene YIL088C): 1.4 | The level of expressed mRNA in the presence of chemical substance/The level of expressed mRNA in the absence of chemical substance (yeast gene YJL034W): 1.0 | The level of expressed mRNA in the presence of chemical substance/The level of expressed mRNA in the absence of chemical substance (yeast gene YJL212C): 0.5 | The level of expressed mRNA in the presence of chemical substance/The level of expressed mRNA in the absence of chemical substance (yeast gene YJL219W): 1.2 | The level of expressed mRNA in the presence of chemical substance/The level of expressed mRNA in the absence of chemical substance (yeast gene YJR077C): 0.8 | The level of expressed mRNA in the presence of chemical substance/The level of expressed mRNA in the absence of chemical substance (yeast gene YJR106W): 1.3 | The level of expressed mRNA in the presence of chemical substance/The level of expressed mRNA in the absence of chemical substance (yeast gene YJR121W): 1.4 | The level of expressed mRNA in the presence of chemical substance/The level of expressed mRNA in the absence of chemical substance (yeast gene YKL016C): 1.7 | The level of expressed mRNA in the presence of chemical substance/The level of expressed mRNA in the absence of chemical substance (yeast gene YKL146W): 0.9 | The level of expressed mRNA in the presence of chemical substance/The level of expressed mRNA in the absence of chemical substance (yeast gene YKR039W): 1.1 | The level of expressed mRNA in the presence of chemical substance/The level of expressed mRNA in the absence of chemical substance (yeast gene YKR067W): 1.0 | The level of expressed mRNA in the presence of chemical substance/The level of expressed mRNA in the absence of chemical substance (yeast gene YLL028W): 1.2 | The level of expressed mRNA in the presence of chemical substance/The level of expressed mRNA in the absence of chemical substance (yeast gene YLR081W): 0.9 | The level of expressed mRNA in the presence of chemical substance/The level of expressed mRNA in the absence of chemical substance (yeast gene YLR295C): 1.5 | The level of expressed mRNA in the presence of chemical substance/The level of expressed mRNA in the absence of chemical substance (yeast gene YLR348C): 1.0 | The level of expressed mRNA in the presence of chemical substance/The level of expressed mRNA in the absence of chemical substance (yeast gene YLR378C): 0.7 | The level of expressed mRNA in the presence of chemical substance/The level of expressed mRNA in the absence of chemical substance (yeast gene YMR011W): 1.6 | The level of expressed mRNA in the presence of chemical substance/The level of expressed mRNA in the absence of chemical substance (yeast gene YMR162C): 1.1 | The level of expressed mRNA in the presence of chemical substance/The level of expressed mRNA in the absence of chemical substance (yeast gene YMR203W): 0.7 | The level of expressed mRNA in the presence of chemical substance/The level of expressed mRNA in the absence of chemical substance (yeast gene YNL055C): 1.7 | The level of expressed mRNA in the presence of chemical substance/The level of expressed mRNA in the absence of chemical substance (yeast gene YNL259C): 2.4 | The level of expressed mRNA in the presence of chemical substance/The level of expressed mRNA in the absence of chemical substance (yeast gene YNR072W): 1.0 | The level of expressed mRNA in the presence of chemical substance/The level of expressed mRNA in the absence of chemical substance (yeast gene YOL119C): 1.0 | The level of expressed mRNA in the presence of chemical substance/The level of expressed mRNA in the absence of chemical substance (yeast gene YOL156W): 0.9 | The level of expressed mRNA in the presence of chemical substance/The level of expressed mRNA in the absence of chemical substance (yeast gene YOL163W): 0.8 | The level of expressed mRNA in the presence of chemical substance/The level of expressed mRNA in the absence of chemical substance (yeast gene YOR035C): 2.1 | The level of expressed mRNA in the presence of chemical substance/The level of expressed mRNA in the absence of chemical substance (yeast gene YOR130C): 1.1 | The level of expressed mRNA in the presence of chemical substance/The level of expressed mRNA in the absence of chemical substance (yeast gene YOR153W): 3.1 | The level of expressed mRNA in the presence of chemical substance/The level of expressed mRNA in the absence of chemical substance (yeast gene YOR273C): 3.1 | The level of expressed mRNA in the presence of chemical substance/The level of expressed mRNA in the absence of chemical substance (yeast gene YOR316C): 1.0 | The level of expressed mRNA in the presence of chemical substance/The level of expressed mRNA in the absence of chemical substance (yeast gene YOR332W): 1.7 | The level of expressed mRNA in the presence of chemical substance/The level of expressed mRNA in the absence of chemical substance (yeast gene YOR348C): 0.9 | The level of expressed mRNA in the presence of chemical substance/The level of expressed mRNA in the absence of chemical substance (yeast gene YPL036W): 0.5 | The level of expressed mRNA in the presence of chemical substance/The level of expressed mRNA in the absence of chemical substance (yeast gene YPL134C): 1.3 | The level of expressed mRNA in the presence of chemical substance/The level of expressed mRNA in the absence of chemical substance (yeast gene YPL147W): 3.6 | The level of expressed mRNA in the presence of chemical substance/The level of expressed mRNA in the absence of chemical substance (yeast gene YPL271W): 1.3 | The level of expressed mRNA in the presence of chemical substance/The level of expressed mRNA in the absence of chemical substance (yeast gene YPR192W): 0.9 | The level of expressed mRNA in the presence of chemical substance/The level of expressed mRNA in the absence of chemical substance (yeast gene YPR194C): 0.9
